{
  "source": "paper PMC6368365",
  "about": "“Didehydro-Cortistatin A Inhibits HIV-1 by Specifically Binding to the Unstructured Basic Region of Tat” (mBio, 2019)",
  "key": {"[1]": {"test_system": "Tat transactivation activity", "experiment": "Transactivation assay (luciferase) in HeLa-CD4-LTR-Luc cells transfected with FLAG-Tat", "assay_type": "cell-based, HIV-1", "settings": "25 nM, 48 h", "protocol": "Supplementary file : FIG S9 Tat-TAR interaction blocked by dCA in HeLa-CD4-LTR-Luc cells. (A) Transactivation assays. HeLa-CD4-LTR-Luc cells, transfected with Tat or Tat Mut, were incubated with the indicated compounds (dCA and raltegravir [“Ralt.”], 25 nM) or DMSO. Forty-eight hours later, cells were lysed and cross-linked, and luciferase activity relative to the Bradford assay or ChIP TAR RNA (Fig. 6D) was determined. Data are the mean ± SD from n = 3 independent experiments. (B) Western blot of the amount of FLAG-Tat bound to FLAG-tagged beads after elution of the samples for ChIP TAR RNA, as control input. The input of FLAG-Tat and GAPDH as a loading control. Data are representative of n = 3 independent experiments. Statistical significance was determined using one-way ANOVA with post hoc Tukey’s test, comparing DMSO to the other conditions. ***, P < 0.0001. Download FIG S9, PDF file, 0.2 MB.\nChromatin was immunoprecipitated with an anti-FLAG antibody, and qRT-PCR was performed to detect the presence of chromatin-coding TAR (Fig. 6D).\nChromatin immunoprecipitation assay (CHIP). HeLa-CD4-LTR-Luc cells (4×10^6) were transfected with different constructs (PGK-FLAG Tat and PGK-FLAG Tat Mut). […] The relative proportions of co-immunoprecipitated DNA were determined on the basis of the threshold cycle for qRT-PCR. […]"}, "[2]": {"test_system": "NL4-3 strain in CDK8/CDK19 knockdown cells", "experiment": "NL4-3 infection of CDK8/CDK19 knockdown HeLa CD4 cells", "assay_type": "cell-based, HIV-1", "settings": "dCA 200 nM, CDK8, CDK19 or CDK8/CDK19 knockdown; viral mRNA and p24", "protocol": "The only other known ligand for dCA is CDK8. […] As such, virus-like particles (VLPs) expressing short hairpin RNAs (shRNAs) against CDK8, CDK19, CDK8/CDK19, or the shRNA control were transduced into HeLa CD4 cells. Stabilization of the knockdown was performed by puromycin selection of the populations over a 2-week period. Both RT-qPCR and Western blotting confirmed successful knockdown of CDK8/CDK19 proteins (Fig. 4A and B). These cells were then infected with NL4-3 and treated or not with dCA, and production of viral RNA and p24 in the supernatant were assessed 72 hours later. […]\nHeLa CD4 cells were transduced with VLPs expressing shRNAs against CDK8, CDK19, or both and puromycin selected to stabilize knockdown (KD). […], mRNA, DNA, and p24 capsid in supernatant were collected and measured. (A and B) CDK8 mRNA and CDK19 mRNA expression was assessed by qRT-PCR and normalized to GAPDH mRNA. […] (C) Protein expression of CDK8 and CDK19 was analyzed 72 hours postinfection by Western blotting. […] (D) Viral mRNA production measured by qRT-PCR using primers against the Nef region was measured as a function of total integrated proviral DNA. […] Statistical significance was determined using one-way ANOVA with post hoc Tukey’s test. ns, not significant; ns^a, DMSO KD CDK19 versus dCA KD CDK19. *, P < 0.01; ***, P < 0.0001; **, P < 0.001. […]"}, "HIV": {"test_system": "HIV", "parameters": "method as in PMID 29045830", "settings": "dCA added to ART-suppressed mice; cited from earlier work"}},
  "data": [
    {"compound": "CN(C)C1CC23CCC4(O2)C(=CCC2(C)C(c5ccc6ccncc6c5)=CCC24)C=C3C(O)C1O", "note": "(stereo not drawn) [dCA, didehydro-cortistatin A]", "values": [
      {"measurement": "Tat transactivation activity (luciferase), transfected FLAG-Tat", "setting": "[1]", "result": "inhibited Tat transactivation activity"},
      {"measurement": "dependence of anti-HIV activity on CDK8", "setting": "[2]", "result": "does not mediate its anti-HIV activity through CDK8 inhibition"},
      {"measurement": "in vivo efficacy", "setting": "HIV", "result": "systemically reduced viral mRNA in tissues and significantly delayed and reduced viral rebound levels upon treatment interruption"}
    ]}
  ]
}
